Laboratory results taken from ChEMBL document CHEMBL4229345, “Inhibition of trypanosome alternative oxidase without its N-terminal mitochondrial targeting signal (ΔMTS-TAO) by cationic and non-cationic 4-hydroxybenzoate and 4-alkoxybenzaldehyde derivatives active against T. brucei and T. congolense” (Eur J Med Chem, 2018).

Columns and labels:
[1] = tested on: Trypanosoma brucei brucei; experiment: Resistance factor, ratio of EC50 for bloodstream trypomastigote stage of Trypanosoma brucei brucei with AQP2/3-dd knock out to EC50 for bloodstream trypomastigote stage of wild-type Trypanosoma brucei brucei Lister 427; assay type: functional
[2] = tested on: Trypanosoma brucei brucei; experiment: Resistance factor, ratio of EC50 for bloodstream trypomastigote stage of Trypanosoma brucei brucei AQP triple knock out to EC50 for bloodstream trypomastigote stage of wild-type Trypanosoma brucei brucei Lister 427; assay type: functional
[3] = tested on: Trypanosoma brucei brucei; experiment: Anti-parasitic activity against bloodstream trypomastigote stage of wild-type Trypanosoma brucei brucei Lister 427 after 48 hrs by resazurin-based assay; assay type: functional, organism-based; conditions: Lister 427, 48 h
[4] = Selectivity index, ratio of CC50 for HEK cells to EC50 for bloodstream trypomastigote stage of wild-type Trypanosoma brucei brucei Lister 427; assay type: toxicity; conditions: human, read-out: Ratio CC50/EC50
[5] = Inhibition of recombinant N-terminal His6 tagged SUMO-fused Trypanosoma brucei brucei TC221 TAO MTS deletion mutant expressed in Escherichia coli FN102 preincubated for 2 mins followed by ubiquinol-1 addition measured over 2 mins by double beam-dual wavelength UV-spectrophotometry
Trypanosoma brucei = experiment: Anti-parasitic activity against bloodstream trypomastigote stage of pentamidine/diminazene/melaminophenyl arsenical resistant Trypanosoma brucei B48 after 48 hrs by resazurin-based assay; assay type: functional, organism-based; conditions: B48, 48 h
[6] = Cytotoxicity against HEK cells assessed as reduction in cell viability after 30 hrs by resazurin-based assay; conditions: human
[7] = Noncompetitive inhibition of recombinant N-terminal His6 tagged SUMO-fused Trypanosoma brucei brucei TC221 TAO MTS deletion mutant expressed in Escherichia coli FN102 preincubated for 2 mins followed by ubiquinol-1 addition measured over 2 mins by Lineweaver-Burk plot analysis
[8] = tested on: Trypanosoma brucei brucei; experiment: Anti-parasitic activity against bloodstream trypomastigote stage of wild-type Trypanosoma brucei brucei Lister 427 after 48 hrs in presence of 5 mM glycerol by resazurin-based assay; assay type: functional, organism-based; conditions: Lister 427, 48 h
Trypanosoma congolense = experiment: Anti-parasitic activity against bloodstream form of Trypanosoma congolense IL3000 after 48 hrs by resazurin-based assay; assay type: functional, organism-based; conditions: IL3000, 48 h
[9] = tested on: Trypanosoma brucei brucei; experiment: Anti-parasitic activity against bloodstream trypomastigote stage of Trypanosoma brucei brucei with AQP2/3-dd knock out after 48 hrs by resazurin-based assay; assay type: functional, organism-based
[10] = tested on: Trypanosoma brucei brucei; experiment: Anti-parasitic activity against bloodstream trypomastigote stage of Trypanosoma brucei brucei with AQP triple knock out after 48 hrs by resazurin-based assay; assay type: functional, organism-based
[11] = Resistance factor, ratio of EC50 for bloodstream trypomastigote stage of pentamidine/diminazene/melaminophenyl arsenical resistant Trypanosoma brucei B48 to EC50 for bloodstream trypomastigote stage of wild-type Trypanosoma brucei brucei Lister 427; assay type: functional
[12] = tested on: Trypanosoma brucei brucei; experiment: Resistance factor, ratio of EC50 for bloodstream trypomastigote stage of wild-type Trypanosoma brucei brucei Lister 427 in presence of 5 mM glycerol to EC50 for bloodstream trypomastigote stage of wild-type Trypanosoma brucei brucei Lister 427; assay type: functional
[13] = Cytotoxicity against HFF cells assessed as reduction in cell viability after 30 hrs by resazurin-based assay; conditions: human
[14] = Selectivity index, ratio of CC50 for HFF cells to EC50 for bloodstream form of Trypanosoma congolense IL3000; assay type: toxicity; conditions: human, read-out: Ratio CC50/EC50
[15] = Stability in mouse serum assessed as compound hydrolysis after 24 hrs by LC/MS analysis; assay type: ADME, cell-free; conditions: read-out: Drug degradation
[16] = Selectivity index, ratio of CC50 for HFF cells to EC50 for bloodstream trypomastigote stage of wild-type Trypanosoma brucei brucei Lister 427; assay type: toxicity; conditions: human, read-out: Ratio CC50/EC50
[17] = Competitive inhibition of recombinant N-terminal His6 tagged SUMO-fused Trypanosoma brucei brucei TC221 TAO MTS deletion mutant expressed in Escherichia coli FN102 preincubated for 2 mins followed by ubiquinol-1 addition measured over 2 mins by Lineweaver-Burk plot analysis
[18] = Half life in mouse serum by LC/MS analysis; assay type: ADME, cell-free
[19] = Stability in mouse serum assessed as compound hydrolysis after 1 hr by LC/MS analysis; assay type: ADME, cell-free; conditions: read-out: Drug degradation
[20] = Stability in mouse serum assessed as parent compound recovery after 15 mins by LC/MS analysis; assay type: ADME, cell-free; conditions: read-out: Drug recovery
[21] = Stability in mouse serum assessed as parent compound remaining after 0.25 to 24 hrs by LC/MS analysis; assay type: ADME, cell-free
[22] = Protein binding in mouse serum up to 24 hrs by LC/MS analysis; assay type: ADME, cell-free; conditions: read-out: PB (converted)

O=C(OCCCCCCCCCCOC(=O)c1ccc(O)cc1O)c1ccc(O)cc1O
Ratio EC50 [1]: 0.5 | Ratio EC50 [2]: 0.14 | EC50 [3]: 49000 nM | selectivity ratio [4]: > 8 | IC50 [5]: 6.9 nM | EC50 (Trypanosoma brucei): 41600 nM | CC50 at 30 h [6]: > 400000 nM | Ki [7]: 34.1 nM | EC50 [8]: 12200 nM | EC50 (Trypanosoma congolense): > 100000 nM | EC50 [9]: 24600 nM | EC50 [10]: 7100 nM | Ratio EC50 [11]: 0.85 | Ratio EC50 [12]: 0.25

Cc1cc(O)ccc1C(=O)OCCCCCCCCCCCCCC[n+]1cccc2ccccc21.[Br-]
Ratio EC50 [1]: 0.47 | Ratio EC50 [2]: 0.41 | CC50 at 30 h [13]: > 200000 nM | EC50 [3]: 210 nM | IC50 [5]: 30 nM | selectivity ratio [14]: > 110 | EC50 (Trypanosoma brucei): 300 nM | metabolised at 24 h [15]: > 99% | EC50 [8]: 145 nM | selectivity ratio [16]: > 952 | EC50 (Trypanosoma congolense): 1820 nM | EC50 [9]: 100 nM | Ki [17]: 52.9 nM | EC50 [10]: 86 nM | Ratio EC50 [11]: 1.4 | Ratio EC50 [12]: 0.69 | half-life [18]: 30 min

O=C(OCCCCCCCCCCCCCC[n+]1cccc2ccccc21)c1ccc(O)cc1O
metabolised at 1 h [19]: 50% | IC50 [5]: 1360 nM

O=COCCCCCCCCCCCCCCCCOC(=O)c1ccc(O)cc1O
Ratio EC50 [1]: 0.42 | Ratio EC50 [2]: 0.11 | EC50 [3]: 11900 nM | selectivity ratio [4]: > 34 | IC50 [5]: 14.4 nM | EC50 (Trypanosoma brucei): 13000 nM | CC50 at 30 h [6]: > 400000 nM | Ki [7]: 71.4 nM | EC50 [8]: 5100 nM | EC50 (Trypanosoma congolense): > 100000 nM | EC50 [9]: 5000 nM | EC50 [10]: 1270 nM | Ratio EC50 [11]: 1.1 | Ratio EC50 [12]: 0.43

O=Cc1ccc(OCCCCCCCCCCCCCC[P+](c2ccccc2)(c2ccccc2)c2ccccc2)cc1O.[Br-]
Ratio EC50 [1]: 0.32 | Ratio EC50 [2]: 0.4 | remaining at 0.25 h [20]: 12% | CC50 at 30 h [13]: > 200000 nM | Stability [21]: Stable | EC50 [3]: 133 nM | fraction unbound at 24 h [22]: 0.1 | IC50 [5]: 220 nM | selectivity ratio [14]: > 740 | EC50 (Trypanosoma brucei): 110 nM | EC50 [8]: 67 nM | selectivity ratio [16]: > 1500 | EC50 (Trypanosoma congolense): 270 nM | EC50 [9]: 42 nM | EC50 [10]: 53 nM | Ratio EC50 [11]: 0.8 | Ratio EC50 [12]: 0.51
